Test results reported in paper PMC6384730, “Systematic Identification of Thiosemicarbazides for Inhibition of Toxoplasma gondii Growth In Vitro” (Molecules, 2019).
≈ marks a conversion by molar mass, not a printed value. Where “and” joins values, the source holds several entries; their conditions need not be identical. Equal entries are not always repeated. Where two headings read alike, the source gives them in different places.

Experiments:
Toxoplasma gondii = tested on: Toxoplasma gondii; set-up: method as in PMID 25010466; details: previously reported; cited from earlier work
T. gondii RH tachyzoites = test: Influence on T. gondii proliferation ([3H]uracil incorporation) in infected Vero cells; type: cell-based, Toxoplasma gondii; details: Toxoplasma gondii, Vero
Description: Vero cell line (African green monkey kidney) (ATCC® CCL-81™) were maintained in EMEM (EMEM/10%HIFBS/P/S) (Eagle’s Minimum Essential Medium—ATCC® 30-2003™) culture medium supplemented with 10% HIFBS (Heat-Inactivated (1 h in 56°C) Fetal Bovine Serum—ATCC), 100 U/mL penicillin, 100 μg/mL streptomycin. The cell line was trypsinized (using Trypsin-EDTA Solution, 1X ATCC® 30-2101™) twice a week, and seeded at density 1 × 10^6 per T25 cell culture flask (Falcon), and incubated for 24–48 h at 37 °C and 5 CO2 to achieve a confluent monolayer. The highly virulent RH strain of Toxoplasma gondii, haplogroup I (ATCC® PRA-310™) were maintained as tachyzoites according to the ATCC product sheet, in DMEM (Dulbecco’s Modified Eagle’s Medium—ATCC® 30-2002™) (DMEM/3%HIFBS/P/S—parasite culture medium) under condition 37 °C and 5 CO2 and passage twice per week.
The Vero cells were seeded on 96-well plates (1 × 10^5 cells/100 µL/well) in EMEM/10%HIFBS/P/S. After 24 h of incubation medium was removed and then T. gondii RH tachyzoites were added to the cell monolayers at density 1 × 10^5 cells/100 µL/well in DMEM/3%HIFBS/P/S. One hour later different compounds and sulfadiazine dilutions (100 µL/well) in parasite culture medium were added to the cell monolayers with T. gondii. After subsequent 24 h of incubation 1 µCi/well [5,6-^3H] uracil (Moravek Biochemicals Inc., Brea, CA, USA) was applied to each microculture for further 72 h. The amount of the isotope incorporated into the parasite nucleic acid pool, corresponding to the parasite growth, was measured by liquid scintillation counting using 1450 Microbeta Plus Liquid Scintillation Counter (Wallac Oy, Turku, Finland). The results were expressed as counts per minute (CPM) and transformed to the percentage of viability compared to untreated cells. All experiments were performed in triplicate.

[1] = MTT cell viability (cytotoxicity) assay on L929 cells; type: cell-based, mouse; details: mouse, 24 h, % of untreated cells; for viability at 24 h, 62.5 µg/mL: 62.50 µg/mL
Description: (§1) Cells were trypsinized twice a week, and seeded at density 1 × 10^6 per T25 cell culture flask, and incubated for 24-48 h at 37 °C and 10% CO2 to achieve a confluent monolayer. […] The final concentration of DMSO in compounds dilutions was not higher than 1.00%. […] Dilution of the all compounds 2-22 and drug were freshly prepared before the cells were exposed. […] The MTT assay was used according to international standards: ISO 10993-5:2009(E), Biological evaluation of medical devices, Part 5: Tests for in vitro cytotoxicity. […] Afterward, the culture medium in the plates was replaced by 100 μL of compounds and sulfadiazine suspension and the cells were exposed for 24 h. Then, 1 mg/mL of MTT solution in RPMI 1640 without phenol red was prepared and 50 μL of the solution was added to each well and incubated at 37 °C, 10% CO2 for 2 h. Mitochondrial dehydrogenases of viable cells reduced the yellowish water-soluble MTT to water-insoluble formazan crystals, which were solubilized with dimethyl sulfoxide (DMSO). The cell culture medium was aspirated cautiously, after which 150 μL DMSO was added to each well, the plates were gently mixed, then 25 μL 0.1 M glycine buffer (pH = 10.5) (Sigma) was added. Optical density was read on the ELISA reader (Multiskan EX, Labsystems, Vienna, VA, USA) at 570 nm. The results were expressed as the percentage of viability compared to untreated cells. All experiments were performed in triplicate. Moreover, cells were treated with 4.0-0.03% concentration of DMSO as a compounds solvent (data not shown).

L929 cells = test: as above; type: cell-based, mouse; details: L929 cells, 24 h exposure
Description: as §1

[2] = RH tachyzoites in Vero cells, [3H]uracil incorporation, highest concentration tested 125 µg/mL, read-out: IC50 (50% inhibition of T. gondii proliferation in vitro)
[3] = IC50 greater than 125 µg/mL (highest concentration tested), calculated by extrapolation of the curves (GraphPad Prism), read-out: IC50 (50% inhibition of T. gondii proliferation in vitro), extrapolated

| SMILES | melting point | CC30 (concentration required for 30% cells proliferation inhibition) (L929 cells) | IC50 (T. gondii RH tachyzoites; [2]) | viability at 24 h, 3.91 µg/mL ([1]; L929 mouse fibroblast cells) | viability at 24 h, 7.81 µg/mL ([1]; L929 mouse fibroblast cells) | viability at 24 h, 15.63 µg/mL ([1]; L929 mouse fibroblast cells) | viability at 24 h, 31.25 µg/mL ([1]; L929 mouse fibroblast cells) | viability at 24 h, 62.5 µg/mL ([1]; L929 mouse fibroblast cells) | viability at 24 h, 125 µg/mL ([1]; L929 mouse fibroblast cells) | viability at 24 h, 250 µg/mL ([1]; L929 mouse fibroblast cells) | viability at 24 h, 500 µg/mL ([1]; L929 mouse fibroblast cells) | IC50 (T. gondii RH tachyzoites; [3]) | other results |
| --- | --- | --- | --- | --- | --- | --- | --- | --- | --- | --- | --- | --- | --- |
| O=C(NNC(=S)Nc1ccc(F)cc1)c1cccs1 [Compound 1] |  |  |  |  |  |  |  |  |  |  |  |  | IC50 against proliferation of Toxoplasma gondii (Toxoplasma gondii): 33.17 mg/L; fold more potent than sulfadiazine (Toxoplasma gondii): at least 15 fold |
| Cc1nc[nH]c1C(=O)NNC(=S)NCCCl [Compound 9] | 175 to 177 °C | >500.00 mg/L and >500 mg/L |  |  |  |  |  |  |  |  |  |  | IC50 (T. gondii RH tachyzoites; read-out: IC50 (50% inhibition of T. gondii proliferation in vitro)): > 125 mg/L; viability at 24 h, 3.91 µg/mL [1]: 100%; viability at 24 h, 7.81 µg/mL [1]: 98.3%; viability at 24 h, 15.63 µg/mL [1]: 97.1%; viability at 24 h, 31.25 µg/mL [1]: 96%; viability at 24 h, 62.5 µg/mL [1]: 95.6%; viability at 24 h, 125 µg/mL [1]: 94.4%; viability at 24 h, 250 µg/mL [1]: 92.8%; viability at 24 h, 500 µg/mL [1]: 87.4% |
| Cc1nc[nH]c1C(=O)NNC(=S)Nc1cccc(Cl)c1 [Compound 10, 4-(3-Chlorophenyl)-1-(4-methylimidazol-5-oyl)thiosemicarbazide] | 203 to 205 °C | 112.20 mg/L | 25.7 mg/L (≈ 83 µM) | 95.7% | 94.1% | 93.5% | 74.6% | 72.1% | 69.9% | 61.8% | 22.1% |  |  |
| Cc1nc[nH]c1C(=O)NNC(=S)Nc1cccc(F)c1 [Compound 11, 4-(3-Fluorophenyl)-1-(4-methylimidazol-5-oyl)thiosemicarbazide] | 191 to 192 °C | 95.50 mg/L | ~118 mg/L (≈ 402 µM) | 104% | 101% | 99.8% | 92.7% | 75.6% | 66% | 57.8% | 46.3% |  |  |
| COc1ccc(NC(=S)NNC(=O)c2[nH]cnc2C)cc1OC [Compound 13, 4-(3,4-Dimethoxyphenyl)-1-(4-methylimidazol-5-oyl)thiosemicarbazide] | 223 to 225 °C | >500.00 mg/L and >500 mg/L |  | 107% | 105% | 103% | 99.8% | 97.5% | 95.7% | 94.2% | 77% | ~175 mg/L (≈ 522 µM) |  |
| Cc1ccc(NC(=S)NNC(=O)c2[nH]cnc2C)cc1Cl [Compound 14, 4-(3-Chloro-4-methylphenyl)-1-(4-methylimidazol-5-oyl)thiosemicarbazide] | 213 to 215 °C | 28.18 mg/L | 18.6 mg/L (≈ 57.5 µM) | 101% | 91.5% | 76.6% | 67.5% | 61.5% | 49.3% | 21.1% | 10.4% |  |  |
| Cc1ccccc1NC(=S)NNC(=O)c1[nH]cnc1C [Compound 16, 1-(4-Methylimidazol-5-oyl)-4-(2-methylphenyl)thiosemicarbazide] | 210 to 212 °C | 288.40 mg/L |  | 103% | 102% | 100% | 93.8% | 91.2% | 79.7% | 71.5% | 63.4% | ~150 mg/L (≈ 519 µM) |  |
| Cc1cccc(NC(=S)NNC(=O)c2[nH]cnc2C)c1 [Compound 17, 1-(4-Methylimidazol-5-oyl)-4-(3-methylphenyl)thiosemicarbazide] | 193 to 195 °C | 50.12 mg/L | 37.1 mg/L (≈ 128 µM) | 94.1% | 88.7% | 85.7% | 74.8% | 64.9% | 56.5% | 50% | 40.7% |  |  |
| Cc1nc[nH]c1C(=O)NNC(=S)Nc1ccc(N(C)C)cc1 [Compound 19, 1-(4-Methylimidazol-5-oyl)-4-(4-dimethyloaminophenyl)thiosemicarbazide] | 215 to 217 °C | 112.20 mg/L |  | 93.1% | 91.8% | 85.7% | 80.8% | 78.6% | 68.5% | 60.8% | 53.3% | ~165 mg/L (≈ 517 µM) |  |
| CCN(CC)c1ccc(NC(=S)NNC(=O)c2[nH]cnc2C)cc1 [Compound 20, 1-(4-Methylimidazol-5-oyl)-4-(4-diethyloaminophenyl)thiosemicarbazide] | 225 to 227 °C | 63.10 mg/L | 25.7 mg/L (≈ 74.2 µM) | 102% | 93.6% | 85.7% | 71.3% | 67.9% | 66% | 53.4% | 12.9% |  |  |
| Cc1nc[nH]c1C(=O)NNC(=S)Nc1c(C(C)C)cccc1C(C)C [Compound 22, 4-(2,6-Diisopropylphenyl)-1-(4-methylimidazol-5-oyl)thiosemicarbazide] | 202 to 204 °C | 190.55 mg/L | 97.7 mg/L (≈ 272 µM) | 116% | 110% | 101% | 80.7% | 79.8% | 76.6% | 68.2% | 58.8% |  |  |
| Nc1ccc(S(=O)(=O)Nc2ncccn2)cc1 [Sulfadiazine, 4-amino-N-(2-pyrimidinyl)benzenesulfonamide, reference compound] |  | 1251.12 mg/L |  |  |  |  |  |  |  |  |  | ~2720 mg/L (≈ 10900 µM) | IC50 against proliferation of Toxoplasma gondii (Toxoplasma gondii): > 500 mg/L |
